Earlier results as cited in US12150927B2, “Use of cannabidiolic acid in the treatment of autism spectrum disorder and associated disorders” (GW Research Limited, priority 2016, dated 2024).

Conditions: background statement; cited from earlier work

SMILES: Cc1c(C(=O)NN2CCCCC2)nn(-c2ccc(Cl)cc2Cl)c1-c1ccc(Cl)cc1 [rimonabant]
- side effects: serious side effects such as suicide ideation
